Results taken from patent US5336485A, “Method for protecting animals against tacrine induced cytotoxic injury using sterol compounds” (priority 1993, dated 1994).
Where a name gives a salt, the structure may show the parent alone.

Legend:
L1210 leukemia cells = conditions: 100 mg/kg ip
liver = test: Partial liver ischemia/reperfusion-induced injury in rats; type: in vivo, rat
Experimental: (§1) 20 hours prior to global occlusion, one group of 10 rats was provided with 64 mg cholesterol/kg body weight and 100 mg tris succinate/kg body weight by i.p. injection, and another group of 10 rats was provided with 100 mg cholesteryl succinate/kg body weight. A control group of rats was only partially occluded for the one hour period. Ninety percent of the rats pretreated with cholesteryl succinate tris salt survived while only 10% of those pretreated with the combination of cholesterol and tris succinate survived. Table 22 of a partial ischemia study where male Sprague-Dawley rats were subjected to occlusion of the blood supply to the left lateral and median lobes of the liver for 60 minutes followed by reperfusion for 24 hours. During this time, the normal blood supply to the other lobes of the liver was maintained. […] Serum was obtained for AST and ALT measurements.
^a Partial liver ischemia was induced in male Sprague Dawley rats

male Sprague-Dawley rats [1] = test: THA-induced side effects in rats; conditions: 100 mg/kg ip 20 h prior
male Sprague-Dawley rats [2] = test: Global liver ischemia/reperfusion-induced lethality in rats; type: in vivo, rat; conditions: ip 20 h prior, global ischemia 60 min; CS 100 mg/kg; cholesterol 64 + tris succinate 100 mg/kg
Experimental: as §1
^a Global (total) or partial liver ischemia was induced 20 hours

[3] = Tissue distribution of alpha-tocopherol and alpha-tocopherol ester in rats; type: in vivo, rat; conditions: 48 h after single dose
skin lesion = test: Topical treatment of dermal injury in a human; type: in vivo
Experimental: In one case, the middle knuckle of the left hand of a person was injured by the removal of a small wart with liquid nitrogen. Two months following the liquid nitrogen insult, the injured area (approximately 1 cm in diameter) was characterized by scar tissue raised several millimeters above the surrounding normal skin. At this time, the lesion was treated by wetting the injured area with alpha-TS dissolved in dimethyl sulfoxide (100mg/ml), daily for a period of two weeks. […] One year following the last alpha-TS treatment, the once injured area remains indistinguishable from the surrounding normal tissue. In another case, a person's lip was severely sunburned. Topical lip cremes and antibiotic cremes were used for several weeks following the ultraviolet insult with minimal therapeutic benefit. At this time, the lesion was treated by wetting the injured area with alpha-TS dissolved in dimethyl sulfoxide (100mg/ml) daily for a period of 1 week. […] In another case, the arch of the left foot of a person was inflamed and blistered from contact dermatitis or stress dermatitis. Six months after unsuccessful treatment on this lesion with betamethasone, the injured area was treated by wetting the injured area with alpha-TS dissolved in dimethyl sulfoxide (100 mg/ml) twice daily for a period of 1 week. […] It is also evident from these cases that alpha-TS is the active component that promotes wound healing and prevents scar formation.

rat hepatocytes [4] = test: EMS-induced cytotoxicity (LDH leakage/cell death) in rat hepatocyte suspensions; conditions: for Protection From Toxic Injury: EMS 3 h; for inhibition at 25 µM: Rattus norvegicus, Hepatocyte
rat hepatocytes [5] = test: EMS-induced lipid peroxidation in rat hepatocyte suspensions; type: cell-based; conditions: 50 mM EMS
[6] = 100 mg/kg ip, 20 hours prior to ischemia

CC(C)CCC[C@@H](C)[C@H]1CC[C@H]2[C@@H]3CC=C4C[C@@H](OC(=O)CCC(=O)O)CC[C@]4(C)[C@H]3CC[C@]12C [Cholesteryl Succinate tris salt]
Survival Time (L1210 leukemia cells): 6.8 ± 0.4 days | ALT (liver; 25 mg/kg ip, vehicle 1027±235): 358±38 | ALT (liver; [6]): 554 ± 213 Units/L | AST (liver; [6]): 1800 ± 904 Units/L | ALT (liver; 100 mg/kg ip, during ischemia): 387 ± 155 Units/L | AST (liver; 100 mg/kg ip, during ischemia): 967 ± 68 Units/L | protection in fed and fasted rats (liver; rat, in vivo): Protection was observed for both fed and fasted rats | Survival (male Sprague-Dawley rats [1]; THA 30.0 mg/kg (vehicle 100%)): 40% | Salivation (male Sprague-Dawley rats [1]; THA 30.0 mg/kg, 0 to 4 scale (vehicle 2.2 ± 0.4)): 4.0 ± 0.0 | Tremors (male Sprague-Dawley rats [1]; THA 30.0 mg/kg, 0 to 4 scale (vehicle 3.0 ± 0.0)): 4.0 ± 0.0 | % Survival (male Sprague-Dawley rats [2]): 90%

Cc1c(C)c2c(c(C)c1OC(=O)CCC(=O)O)CC[C@@](C)(CCC[C@H](C)CCC[C@H](C)CCCC(C)C)O2 [alpha-TS, d-alpha-tocopheryl succinate]
alpha-TS detection in tissue [3]: could not be detected | healing of sunburned lip (skin lesion; topical 100 mg/ml in DMSO daily, 1 week): rapid healing of the lip without scar formation | healing of injured area (liquid nitrogen) (skin lesion; topical 100 mg/ml in DMSO daily, two weeks): rapid healing of the injured area with the elimination of scar tissue | healing of foot lesion (dermatitis) (skin lesion; topical 100 mg/ml in DMSO twice daily, 1 week): rapid healing of the foot lesion with the dissolution of both inflammation and blisters | protection against loss of viability (rat hepatocytes [4]; 0.5 μM, EMS): 85% | protection against loss of viability and metabolic performance (rat hepatocytes [4]; 2 μM, EMS): 100% | Protection From Toxic Injury (rat hepatocytes [4]; 2.0 μM): Yes | Protection From Toxic Injury (rat hepatocytes [4]; 10 μM): Yes | Protection From Toxic Injury (rat hepatocytes [4]; 25 μM): Yes | Protection From Toxic Injury (rat hepatocytes [4]; 250 μM): Yes | Cell Death (rat hepatocytes [4]; 50 mM EMS + 25 μM alpha-TS): 30 ± 7% | Cell Death (rat hepatocytes [4]; 50 mM EMS + 25 μM alpha-TS + 100 μM Bis-(p-nitrophenyl) phosphate): 52 ± 3% | Cell Death (rat hepatocytes [4]; 50 mM EMS + 25 μM alpha-TS + 100 μM Diethyl p-nitrophenyl phosphate): 58 ± 8% | Cell Death (rat hepatocytes [4]; 50 mM EMS, 5 Hrs, alpha-TS 25, methyl ester 50, cholesteryl succinate 100, monomethyl/dimethyl succinate 250 μM): 27 ± 1% | Protection From Toxic Injury (rat hepatocytes [4]; .5 μM): Yes | % Cell Death (rat hepatocytes [4]; EMS 50 mM, 25 μM alpha-TS (no alpha-TS 68)): 25% | inhibition at 25 µM (rat hepatocytes [4]; 5 h, read-out: Percent Cytoprotection, 25 μM, 50 mM EMS, 5 h): 92 ± 3% | inhibition at 25 µM (rat hepatocytes [4]; read-out: % Protection, 25 μM, 50 mM EMS): 100% | protection from lethal effects of EMS (rat hepatocytes [4]; rat hepatocytes, 25 μM, 50 mM EMS): protected both rat and canine hepatocytes from the lethal effects | Lipid Peroxidation (rat hepatocytes [5]; 5 Hrs, concentrations as cell death (Table 15)): 0.9 nmolMDA/10^6 cells | inhibition at 25 µM (rat hepatocytes [5]; Rattus norvegicus, Hepatocyte, 25 μM): 100%
